Reference: paper PMC7056863, “Development of a CDK10/CycM in vitro Kinase Screening Assay and Identification of First Small-Molecule Inhibitors” (Frontiers in Chemistry, 2020)
Where two headings read alike, the source gives them in different places.

Key:
[1] = target: T1, GST-CDK10/Strep2-CycM (CDK10/CycM) (Homo sapiens, UniProt Q15131); assay: ADP-Glo luminescent kinase assay, CDK10tide (Jar1) peptide; assay type: biochemical
T1 construct: GST-CDK10 co-expressed with Strep2-CycM (pFastBacDual) in Sf9 cells, glutathione sepharose purified heterodimer, tags kept; with Cyclin-Q
T1 sequence (Q8N1B3 whole entry partner, one chain of several): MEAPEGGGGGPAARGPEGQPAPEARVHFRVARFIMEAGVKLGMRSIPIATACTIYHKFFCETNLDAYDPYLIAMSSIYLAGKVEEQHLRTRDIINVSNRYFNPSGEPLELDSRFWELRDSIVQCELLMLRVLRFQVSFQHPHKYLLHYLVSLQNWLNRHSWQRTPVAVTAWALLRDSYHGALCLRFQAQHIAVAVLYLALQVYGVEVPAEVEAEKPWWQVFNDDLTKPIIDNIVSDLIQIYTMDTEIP
Excerpt: ADP-Glo luminescent kinase assay, CDK10tide (Jar1) peptide on GST-CDK10/Strep2-CycM (CDK10/CycM)

[2] = target: T1, GST-CDK10/Strep2-CycM (CDK10/CycM); assay: in vitro kinase assay; assay type: biochemical; settings: for inhibition at 1 µM: read-out: % inhibition at 1 uM
[3] = substrate: Nc1ncnc2c1ncn2[C@@H]1O[C@H](COP(=O)(O)OP(=O)(O)OP(=O)(O)O)[C@@H](O)[C@H]1O; assay: ADP-Glo luminescent kinase assay, ATP titration, Michaelis-Menten; assay type: biochemical, Homo sapiens; settings: […] CDK10tide, […] enzyme, […] ATP, […] MgCl2, pH […]
[4] = read-out: CDK10/CycM (measured herein)

In the case of CC(=O)N[C@@H]1CCC[C@H](C(=O)Nc2cc(-c3cnn4c3CC(C)(C)C4)c(Cl)cn2)C1 [AZD4573], the IC50 [1, 4] is reported as 36 nM.

CC[C@H](CO)Nc1nc(NCc2ccc(-c3ccccn3)cc2)c2ncn(C(C)C)c2n1 [CR8] was tested, and the inhibition at 1 µM [2] was < 50%.

CCc1cnn2c(NCc3ccc[n+]([O-])c3)cc(N3CCCC[C@H]3CCO)nc12 [dinaciclib] showed an IC50 ([1]; read-out: CDK9/CycT1 (measured herein)) of 13 nM.

With Cn1cnc2c(NCc3ccccc3)nc(NCCO)nc21 [olomoucine] the inhibition at 1 µM [2] was < 50%.

In the case of CC(=O)c1c(C)c2cnc(Nc3ccc(N4CCNCC4)cn3)nc2n(C2CCCC2)c1=O [palbociclib], the inhibition at 1 µM [2] is reported as < 50%.

In the case of CN1CC[C@H](c2c(O)cc(O)c3c(=O)cc(-c4ccccc4Cl)oc23)[C@H]1CO [riviciclib], the IC50 [1, 4] is reported as 280 nM.

CC[C@H](CO)Nc1nc(NCc2ccccc2)c2ncn(C(C)C)c2n1 [roscovitine] was tested, and the inhibition at 1 µM [2] was < 50%.

meriolin was tested, and the “% inhibition at 1 uM” value ([2]; data not shown, text: not greater than […]) was < 50%.

B1: GST-CDK10/Strep2-CycM (CDK10/CycM) (Homo sapiens) (protein)
chain: MAEPDLECEQIRLKCIRKEGFFTVPPEHRLGRCRSVKEFEKLNRIGEGTYGIVYRARDTQTDEIVALKKVRMDKEKDGIPISSLREITLLLRLRHPNIVELKEVVVGNHLESIFLVMGYCEQDLASLLENMPTPFSEAQVKCIVLQVLRGLQYLHRNFIIHRDLKVSNLLMTDKGCVKTADFGLARAYGVPVKPMTPKVVTLWYRAPELLLGTTTQTTSIDMWAVGCILAELLAHRPLLPGTSEIHQIDLIVQLLGTPSENIWPGFSKLPLVGQYSLRKQPYNNLKHKFPWLSEAGLRLLHFLFMYDPKKRATAGDCLESSYFKEKPLPCEPELMPTFPHHRNKRAAPATSEGQSKRCKP
notes: GST-CDK10 co-expressed with Strep2-CycM (pFastBacDual) in Sf9 cells, glutathione sepharose purified heterodimer, tags kept; with Cyclin-Q
With B1 the Km [3] was 177 µM.
